Series [1] addresses Sigma non-opioid intracellular receptor 1 (Cavia porcellus, UniProt Q60492).
Description: Displacement of [3H]-(+)-pentazocine from sigma1 receptor in guinea pig brain cortex membranes after 120 mins by microbeta scintillation counting method
For series [2], the target named is T1, Sigma intracellular receptor 2 (Rattus norvegicus, UniProt Q5U3Y7).
T1 sequence (Q5U3Y7 whole entry): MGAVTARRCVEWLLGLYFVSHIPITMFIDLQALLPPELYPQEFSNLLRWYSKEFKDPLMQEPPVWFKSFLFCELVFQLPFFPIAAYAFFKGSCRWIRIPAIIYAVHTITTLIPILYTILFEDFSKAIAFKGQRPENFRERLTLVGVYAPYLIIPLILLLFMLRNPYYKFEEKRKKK
Kind of series: Displacement of [3H]DTG from sigma2 receptor in rat liver membranes after 120 mins by microbeta scintillation counting method. The format is cell membranes, Membrane. For orientation: Displacement assays read how much labelled ligand stays bound in the presence of the test substance.

The nature of series [3]: Selectivity ratio of Ki for sigma1 receptor in guinea pig brain cortex membranes to Ki for recombinant human GluN1A/GluN2B receptor expressed in mouse L(tk-) cell membranes. It is filed as cell-based.
Series [4] in a line: Selectivity ratio of Ki for sigma2 receptor in rat liver membranes to Ki for recombinant human GluN1A/GluN2B receptor expressed in mouse L(tk-) cell membranes. The format is cell-based.
Series [5] is described as follows: Displacement of [3H]ifenprodil from recombinant human GluN1A/GluN2B receptor expressed in mouse L(tk-) cell membranes after 120 mins by microbeta scintillation counting method.
Series [6] can be described thus: Antagonist activity at GluN1A/GluN2A receptor (unknown origin) expressed in Xenopus laevis oocytes assessed as inhibition of glutamate/glycine-induced channel current at 1 uM at -70 mV holding potential by two electrode voltage clamp method relative to control. It is filed as cell-based. Particulars: Homo sapiens. On the technique in general: Two-electrode voltage clamp is typically applied to oocytes expressing channels or transporters.

For series [7], the species on record is Homo sapiens. Kind of series: Antagonist activity at glutamate/glycine-stimulated recombinant human GluN1A/GluN2B receptor expressed in mouse L(tk-) cells assessed as protection against receptor overstimulation-induced excitotoxicity at 10 to 100 uM preincubated for 30 mins followed by glutamate/glycine stimulation measured after 6 hrs by LDH release assay relative to control. The format is cell-based.

The nature of series [8]: n-Octanol-buffer distribution coefficient, log D of the compound at pH 7.4 by mass spectrometry based shake flask method. The format is physicochemical.
Series [9] is described as follows: Selectivity ratio of Ki for PCP binding site of NMDA receptor in pig brain cortex membranes to Ki for recombinant human GluN1A/GluN2B receptor expressed in mouse L(tk-) cell membranes.

Bounds are passed on as bounds.

Chain of Sigma non-opioid intracellular receptor 1 (Q60492 whole entry): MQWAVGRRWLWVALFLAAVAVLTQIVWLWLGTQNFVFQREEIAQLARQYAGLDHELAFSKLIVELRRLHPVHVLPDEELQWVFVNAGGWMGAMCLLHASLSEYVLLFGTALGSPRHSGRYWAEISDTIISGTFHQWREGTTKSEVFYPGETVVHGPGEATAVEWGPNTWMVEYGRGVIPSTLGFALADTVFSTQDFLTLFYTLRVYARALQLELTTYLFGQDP

As to `O=[N+]([O-])c1ccc2c(c1)C(O)CN(CCCc1ccccc1)CC2` (stereo not drawn), the Ki (as a rule, the dissociation constant of the complex between target and ligand, obtained from inhibition or displacement) in [1] turned out to be 1300 nM; in series [2], 300 nM; in series [5], 110 nM. Besides, the figures for the Ratio Ki in series [3] and in series [4] were 12 and 3, respectively.

Take `c1ccc(CCCCCN2CCc3ccccc3CC2)cc1`: the Ki in [1] was found to be 48 nM; in series [2], 170 nM; in series [5], 110 nM. Moreover, the Ratio Ki in [3] was determined as 0.4; in series [4], 1.

With `O=C(c1ccccc1)N1CCC(N2CCc3ccccc3C(O)C2)CC1` (stereo not drawn), the Ki in series [1] stood at 800 nM; in [2], 1400 nM; in series [5], 890 nM. Also, the figures for the Ratio Ki in series [3] and in [4] were 0.9 and 2, respectively.

In the case of `O=[N+]([O-])c1ccc2c(c1)C(O)CN(CCc1ccccc1)CC2` (stereo not drawn), the Ki in [1] is 1800 nM; in [2], greater than 10000 nM; in [5], 1600 nM. For the same compound, the Ratio Ki in [3] turned out to be 1; in [4], 6.

Regarding `OC1CN(C2CCN(Cc3ccccc3)CC2)CCc2ccccc21` (stereo not drawn), the Ki in series [1] came out at 3.5 nM; in series [2], 34 nM; in series [5], 6 nM. Also, the values for the inhibition in [6] and in series [7] were 13% and less than 6%, respectively. Also, the Ratio Ki stood at 0.6 in series [3] and 6 in [4].

Consider `OC1CN(Cc2ccc(-c3ccccc3)cc2)CCc2ccccc21` (stereo not drawn), for which the Ki in [1] was 230 nM; in series [2], 760 nM; in [5] it was 210 nM. For the same compound, the Ratio Ki in [3] worked out at 1; in series [4], 4.

Consider `O=[N+]([O-])c1ccc2c(c1)C(O)CN(CCCCc1ccccc1)CC2` (stereo not drawn), for which the Ki in series [1] worked out at 621 nM; in series [2] it was 220 nM; in series [5], 300 nM. The logD (as a rule, lipophilicity at a set pH, counting ionised and neutral species) in series [8] came to 3.82. Also, the Ratio Ki in [3] was 2; in series [4], 0.7.

As to `OC1CN(CCCCc2ccccc2)CCc2ccccc21` (stereo not drawn), the logD in [8] was 2.7.

On to `Oc1ccc2c(c1)CCN(CCCCc1ccccc1)CC2O` (stereo not drawn), for which the logD in [8] is 1.67.

Turning to `O=[N+]([O-])c1ccc2c(c1)C(O)CN(CCCCOc1ccccc1)CC2` (stereo not drawn), the Ki in series [1] was found to be 1500 nM; in [2], 1000 nM; in [5], 770 nM. The results for the Ratio Ki in series [3] and in series [4] were 2 and 1, respectively.

Consider `COc1ccc(C(=O)CCCN2CCc3ccccc3C(O)C2)cc1` (stereo not drawn), for which the Ki in series [1] was greater than 10000 nM; in [2], 1100 nM; in series [5], greater than 1000 nM.

On to `O=[N+]([O-])c1ccc2c(c1)C(O)CN(CCCCCc1ccccc1)CC2` (stereo not drawn), for which the Ki in series [1] is 100 nM; in series [2], 116 nM; in series [5], 240 nM. Further, the Ratio Ki in [3] came to 0.4; in series [4] it was 0.5.

`OC1CN(CCCCOc2ccccc2)CCc2ccccc21` (stereo not drawn): the Ki is greater than 10000 nM in series [1], 280 nM in series [2] and 250 nM in [5]. In addition, the Ratio Ki in [3] was greater than 41; in series [4], 1.

Regarding `O=[N+]([O-])c1ccc2c(c1)C(O)CN(Cc1ccccc1)CC2` (stereo not drawn), the Ki in series [1] was 320 nM; in series [2], 4600 nM; in series [5], greater than 1000 nM. In series [3], the Ratio Ki is less than 0.3.

Take `CC(C(O)c1ccc(O)cc1)N1CCC(Cc2ccccc2)CC1` (stereo not drawn) [IFENPRODIL]: the inhibition – broadly, the change of the read-out against control, counted positive when it falls – in series [6] is 87%. For the same compound, in series [5], the Ki amounted to 10 nM.

With `OC(CN1CCC(Cc2ccc(F)cc2)CC1)c1ccc(Cl)cc1` (stereo not drawn) [ELIPRODIL], the Ki in series [5] was 13 nM.

For `c1ccc(CCCCN2CCc3ccccc3CC2)cc1`, the Ki was determined as 10 nM in series [1], 35 nM in series [2] and 230 nM in [5]. The same compound gave a logD in series [8] of 3.13. Also, the figures for the Ratio Ki in series [3] and in series [4] were 0.04 and 0.15, respectively.

With `O=[N+]([O-])c1ccc2c(c1)C(O)CN(C1CCC(c3ccccc3)CC1)CC2` (mixture of isomers), the Ki in [1] stood at 360 nM; in [2], 24 nM; in series [5], 16 nM. Besides, the inhibition in [6] was 4.8%; in series [7], less than 6%. Moreover, the values for the Ratio Ki in [3] and in series [4] were 23 and 2, respectively.

With `OC1CN(CCc2ccccc2)CCc2ccccc21` (stereo not drawn), the values for the Ki in series [1] and in series [2] were 1600 nM and 3200 nM, respectively. Further, the Ratio Ki in series [3] worked out at 1; in series [4], 2.

As for `OC1CN(C2CCC(c3ccccc3)CC2)CCc2ccccc21` (mixture of isomers), the inhibition constant Ki in [1] amounted to 82 nM; in series [2], 55 nM; in [5], 2.2 nM. Besides, the figures for the inhibition in [6] and in series [7] were 0.8% and less than 6%, respectively. In addition, the Ratio Ki is 37 in [3], 25 in [4] and greater than 4500 in series [9].

For the compound `Nc1ccc2c(c1)C(O)CN(CCCCCc1ccccc1)CC2` (stereo not drawn), the figures for the Ki in series [1], in [2] and in series [5] were 260 nM, 110 nM and 130 nM, respectively. Further, the results for the Ratio Ki in [3] and in [4] were 2 and 0.9, respectively.

Regarding `c1ccc(-c2ccc(CN3CCc4ccccc4CC3)cc2)cc1`, the Ki in series [1] turned out to be 16 nM; in [2], 120 nM; in series [5] it was 75 nM. Also, the Ratio Ki is 0.2 in [3] and 2 in [4].

As to `O=[N+]([O-])c1ccc2c(c1)C(O)CN(Cc1ccc(-c3ccccc3)cc1F)CC2` (stereo not drawn), the results for the Ki in [1], in series [2] and in [5] were 2800 nM, 1400 nM and greater than 1000 nM, respectively.

Consider `Nc1ccc2c(c1)C(O)CN(CCCCc1ccccc1)CC2` (stereo not drawn), for which the Ki was greater than 10000 nM in series [1], 970 nM in series [2] and 1000 nM in series [5]. The compound further registered a logD in series [8] of 1.58. The figures for the Ratio Ki in [3] and in series [4] were greater than 10 and 1, respectively.

For the compound `O=C(CCCN1CCc2ccccc2C(O)C1)c1ccc(F)cc1` (stereo not drawn), the Ki is 1100 nM in series [1] and 61 nM in [2]. Moreover, the figures for the Ratio Ki in [3] and in [4] were 4 and 0.2, respectively.

With `OC1CN(CCCCCc2ccccc2)CCc2ccccc21` (stereo not drawn), the Ki in series [1] came out at 460 nM; in series [2], 119 nM; in series [5], 67 nM. The figures for the Ratio Ki in series [3] and in [4] were 7 and 2, respectively.
